We go through 39 molecules from US9127233B2, “Device and method for solubilizing, separating, removing and reacting carboxylic acids in oils, fats, aqueous or organic solutions by means of micro-or nanoemulsification” (priority 2010, dated 2015).

“And” between values parts separate entries of the source, which are not always exact repeats. Equal values may be shown once. Where a name gives a salt, the structure may show the parent alone. Read-outs that look alike come from different tables or passages of the source. Where a SMILES comes first, the peptide text is derived from it.

Data set [1] can be described thus: Estimation of solubility of the test substance in H2O. Format: physicochemical.
Data set [2] is described as follows: pH of aqueous solution of solubilizing compound mixed with oleic acid. The format is physicochemical. Particulars: solubilizing compound in water with 0.833 mol equivalents of oleic acid.
Data set [3] can be described thus: Estimation of the interaction between oleic acid and the test substance. The format is physicochemical.
Data set [4] is described as follows: Dynamic laser light scattering (DLS) of oleic acid micro-/nanoemulsions. Format: physicochemical. As to conditions: for Mean Size by Intensity: DLS, emulsion with oleic acid; for Part: percentage of the peak in the sample.
Data set [5] can be described thus: log P of the test substance.
For data set [6] the following is noted: cited from earlier work.
The target in data set [7] is fatty acids bound to albumin (Homo sapiens, UniProt P02768). Description: Liberation of 3H-labeled oleic acid bound to albumin, extraction with n-hexane. As to conditions: identical procedure.
Sequence of fatty acids bound to albumin (P02768 25-609): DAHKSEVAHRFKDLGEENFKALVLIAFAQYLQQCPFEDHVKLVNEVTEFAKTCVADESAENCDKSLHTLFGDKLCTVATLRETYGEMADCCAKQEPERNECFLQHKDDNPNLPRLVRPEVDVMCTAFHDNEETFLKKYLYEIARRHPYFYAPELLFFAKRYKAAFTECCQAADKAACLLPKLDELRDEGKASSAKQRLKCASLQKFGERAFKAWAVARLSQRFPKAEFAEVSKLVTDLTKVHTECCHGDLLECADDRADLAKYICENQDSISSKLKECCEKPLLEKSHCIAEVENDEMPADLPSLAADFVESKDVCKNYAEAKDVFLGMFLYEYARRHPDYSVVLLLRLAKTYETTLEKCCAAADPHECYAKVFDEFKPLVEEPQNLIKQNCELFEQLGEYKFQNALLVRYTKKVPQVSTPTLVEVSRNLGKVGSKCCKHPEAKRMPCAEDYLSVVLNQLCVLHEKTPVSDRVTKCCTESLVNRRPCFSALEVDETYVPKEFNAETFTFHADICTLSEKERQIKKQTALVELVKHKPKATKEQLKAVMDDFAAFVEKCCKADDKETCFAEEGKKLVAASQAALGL
Where [8] appears, read: water (H2O), test substance mixed with oleic acid.

As for `Cc1ccccc1NC(=N)NC(=N)N` [1-(o-Tolyl)biguanide], the “Dissolved (H2O)” value in data set [1] was “(X)”. Moreover, the pH in [2] worked out at 11.53. Also, in [3], the “Interaction with Oleic Acid” value is “X, E”. In [4], the “Mean Size by Intensity” value turned out to be 850 nm and the Part worked out at 95.5%. In [5] (setting [8]), the logP (usually a log measure of how a compound divides between an organic and an aqueous phase) amounted to 1.41.
With `CO/C=C(/C(=O)OC)c1ccccc1Oc1cc(Oc2ccccc2C#N)ncn1` [azoxystrobin], the “mg soluble in water” value in data set [6] was 6.7 mg/L.
Consider `N=C(N)N[C@@H](CCC(=O)O)C(=O)O` [(S)-(−)-2-Guanidinoglutaric acid], for which the pH in data set [2] was 10.15. For the same molecule, the “Interaction with Oleic Acid” value in data set [3] was “X, E”. Also, the logP in data set [5] (setting [8]) is -3.14.
Consider `NC(N)=NCC(=O)O` [Guanidine acetic acid], for which the “Dissolved (H2O)” value in data set [1] is on record as “((X))”. The pH in data set [2] worked out at 6.20. In addition, in [3], the “Interaction with Oleic Acid” value was “(X), E/S”. Further, in data set [5], the log partition coefficient (log P) – broadly, the decadic logarithm of the partition coefficient of the neutral form, usually between octanol and water – was −2.387.
As for `NC(N)=NS(=O)(=O)c1ccc(N)cc1` [Sulfaguanidine, 4-amino-N-(diaminomethylen)benzensulfonamide, reference compound], in data set [3], the “Interaction with Oleic Acid” value is “X, S”. The logP in the data set “physchem” is -1.24.
For `N=C(N)NCCC(=O)O` [3-Guanidinopropionic acid], in [2], the pH amounted to 11.71. Further, the “Interaction with Oleic Acid” value in data set [3] is on record as “X, E”. Further, in [4], the “Mean Size by Intensity” value was 153 nm and the Part is 64.7%. This molecule showed a logP in the data set “physchem” of -3.77.
`N=C(N)NCCCC(=O)O` [4-Guanidinobutyric acid]: the pH in [2] amounted to 10.41. Moreover, in data set [3], the “Interaction with Oleic Acid” value is “X, E”. The molecule further had a log partition coefficient (logP) in the data set “physchem” of -3.44.
For `N=C(N)NCCCCN.O=S(=O)(O)O` [Agmatin sulfate], the pH in [2] was found to be 10.53. Further, in [3], the “Interaction with Oleic Acid” value is given as “X, S”. In “physchem”, this molecule returned a logP of -1.81.
Turning to `Nc1nc(N)nc(N)n1` [Melamine], in [1], the “Dissolved (H2O)” value is given as “(X)”. For the same molecule, in [2], the pH stood at 8.25. In addition, the “Interaction with Oleic Acid” value in data set [3] is on record as “X, S”. In the data set “physchem”, this molecule registered a log partition coefficient (logP) of -0.961.
In the case of sudan red, the “mg soluble in water” value in data set [6] was “unsoluble”.
Turning to `CC(=O)O.CC(=O)O.N=C(NCCCCCCNC(=N)NC(=N)Nc1ccc(Cl)cc1)NC(=N)Nc1ccc(Cl)cc1` [Chlorhexidine diacetate, 1,1′-hexamethylenbis[5-(4-chlorphenyl)-biguanide], reference compound], in data set [1], the “Dissolved (H2O)” value was “(X)”. The pH in data set [2] was 6.51 and 9.58. For the same molecule, in data set [3], the “Interaction with Oleic Acid” value is recorded as “X, S”.
In the case of `NC(=O)C[C@H](N)C(=O)O` [asparagine, reference compound], in [7], the “reduction of residual fatty acids as compared to arginine” value (“reduction of residual fatty acids” for short) is “significantly less”.
Take `C1=Cc2nc1c(-c1ccccc1)c1nc(c(-c3ccccc3)c3ccc([nH]3)c(-c3ccccc3)c3ccc([nH]3)c2-c2ccccc2)C=C1` [tetraphenylporphyrin]: the “mg soluble in water” value in data set [6] is 2 mg/L.
The molecule `C[C@@H](O)[C@H](N)C(=O)N[C@@H](CCCCN)C(=O)N1CCC[C@H]1C(=O)N[C@@H](CCCNC(=N)N)C(=O)O` [Thr-Lys-Pro-Arq (Tuftsin)] (H-TKPR-OH; N-terminus and C-terminus assumed) yielded a logP of -3.98.
For `Cl.N=C(N)NC[C@H](N)C(=O)O` [L-2-Amino-3-guanidinopropionic acid hydrochloride], the pH in [2] was 11.05. Moreover, the “Interaction with Oleic Acid” value in data set [3] was “X, E”. Also, in data set [4], the “Mean Size by Intensity” value turned out to be 113 nm and the Part is listed as 87.2%. In “physchem”, this molecule had a logP of -3.81.
On to `CN/C(=N\[N+](=O)[O-])NCc1cnc(Cl)s1` [Clothianidine, (E)-1-(2-chlor-1,3-thiazol-5-ylmethyl)-3-methyl-2-nitroguanidine], for which the “Dissolved (H2O)” value in data set [1] is given as “(X)”. Moreover, the pH in data set [2] is recorded as 9.81. For the same molecule, the “Interaction with Oleic Acid” value in data set [3] was “X, E”. In data set [4], the “Mean Size by Intensity” value is given as 153 nm and the Part is listed as 53.9%. Besides, in [5], the logP is -2.03.
Consider `NCCCC[C@H](N)C(=O)O` [L-Lysine], for which the pH in [2] stood at 9.56. Moreover, in data set [3], the “Interaction with Oleic Acid” value was “X, E”. In [4], the “Mean Size by Intensity” value came to 133 nm and the Part was 95.6%. Moreover, in data set [7], the “reduction of residual fatty acids” value is on record as “significantly less”. The molecule further had a logP in data set [5] (setting [8]) of -3.42.
The molecule `Cc1ccccc1NC(=N)Nc1ccccc1C` [1,3-Di-o-tolyl-guanidine] came in with a logP in [5] (setting [8]) of 3.01.
On to `Cl.N[C@@H](Cc1c[nH]cn1)C(=O)O.O` [Histidine hydrochloride monohydrate], for which the pH in [2] amounted to 9.30. In addition, the “Interaction with Oleic Acid” value in [3] is listed as “X, E”. Also, in [4], the “Mean Size by Intensity” value was 647 nm and the Part was found to be 81.9%. Besides, the “reduction of residual fatty acids” value in data set [7] is on record as “significantly less”. The molecule also showed a logP in “physchem” of -4.37.
“4-(4,6-Diamino-2,2-dimethyl-2H-[1,3,5]triazine-1-yl”: in [1], the “Dissolved (H2O)” value is given as “(X)”. The pH in data set [2] amounted to 11.28. Further, the “Interaction with Oleic Acid” value in data set [3] is “X, E, S”.
Consider `N=C(N)NCCC[C@H](NC(=O)CN)C(=O)O` [Gly-Arg] (H-Gly-Arg-OH; N-terminus and C-terminus assumed), for which the logP was -5.06.
Regarding `Cl.N=C(N)Nc1ccc(C(=O)O)cc1` [4-Guanidinobenzoic acid hydrochloride], in data set [1], the “Dissolved (H2O)” value was “(X)”. The pH in data set [2] was 11.19. For the same molecule, the “Interaction with Oleic Acid” value in data set [3] was “X, E”. The molecule also gave a logP in data set [5] (setting [8]) of 0.604.
The molecule `NCCCC[C@H](N)C(=O)N[C@@H](CCCN=C(N)N)C(=O)O` [Lys-Arq acetate] (H-Lys-Arg-OH) showed a logP of -5.06.
`N=C(N)NCCC[C@H](NC(=O)[C@@H](N)Cc1c[nH]cn1)C(=O)O` [His-Arg] (H-His-Arg-OH; N-terminus and C-terminus assumed): the logP was -5.74.
Take `CN(CC(=O)O)C(=N)N` [Creatine]: the “Interaction with Oleic Acid” value in data set [3] is “(X), E”. The logP in “physchem” is -0.884.
On to `COC(=O)[C@H](N)CCCNC(=N)N.Cl.Cl` [D-arginine methyl ester dihydrochloride], for which the pH in [2] worked out at 11.35. Also, the “Interaction with Oleic Acid” value in data set [3] is “X, S”. In addition, the logP in the data set “physchem” was -2.11.
Take `CN/C(=N/CCSCc1nc[nH]c1C)NC#N` [Cimetidine, 2-cyan-1-methyl-3-[2-(5-methylimidazol-4-ylmethylsulfanyl)-ethyl]-guanidine, reference compound]: the “Dissolved (H2O)” value in data set [1] is “((X))”. The pH in data set [2] is on record as 9.54. The “Interaction with Oleic Acid” value in data set [3] is listed as “X, E”. In [4], the “Mean Size by Intensity” value was found to be 239 nm and the Part was determined as 67.2%. The molecule further returned a logP in the data set “physchem” of 0.19.
On to `[Co+2].c1ccc2c(c1)-c1nc-2nc2[n-]c(nc3nc(nc4[n-]c(n1)c1ccccc41)-c1ccccc1-3)c1ccccc21` [co-phthalocyanine], for which the “mg soluble in water” value in data set [6] is listed as “unsoluble”.
On to `O=C(O)CCCNC1=NCCN1` [4-(4,5-Dihydro-1H-imidazol-2-ylamino)-butyric acid], for which, in data set [2], the pH is 8.63 and 11.5. Besides, in [3], the “Interaction with Oleic Acid” value is “X, E”. In [4], the “Mean Size by Intensity” value was 627 nm and the Part is given as 58.9%. In data set [5] (setting [8]), this molecule had a logP of -1.6.
As to `[H]/N=C(\N/C(=N/[H])Nc1ccc(Cl)cc1)NC(C)C` [Proguanil hydrochloride, 1-(4-chlorphenyl)-5-isopropylbi-guanide, reference compound], the “Dissolved (H2O)” value in data set [1] is “(X)”. Moreover, in data set [2], the pH was 7.66. Also, in data set [3], the “Interaction with Oleic Acid” value is listed as “X, E”. The logP in data set [5] (setting [8]) was 2.53.
For the molecule `N=C(N)NCCCCCC(=O)O` [6-Guanidinohexanoic acid], the “Dissolved (H2O)” value in data set [1] is on record as “(X)”. In addition, the pH in data set [2] is 9.01. In addition, in data set [3], the “Interaction with Oleic Acid” value is “(X), E”. Moreover, the logP in data set [5] (setting [8]) was -3.6.
With “Aminophenylacetic acid [reference compound]”, the “Dissolved (H2O)” value in data set [1] is “(X)”. Further, in data set [2], the pH came out at 9.23. Further, in [3], the “Interaction with Oleic Acid” value is listed as “((X))”. For the same molecule, the “log P” value in [5] turned out to be 0.73.
As to `NC(=O)CC[C@H](N)C(=O)O` [L-Glutamin, reference compound], the “Dissolved (H2O)” value in [1] is on record as “(X)”. The pH in data set [2] worked out at 8.37. In addition, the “Interaction with Oleic Acid” value in [3] is listed as “((X))”. Further, the “reduction of residual fatty acids” value in data set [7] was “significantly less”. Further, the log partition coefficient (logP) in “physchem” is -2.05.
Regarding `NCC(=O)N[C@@H](Cc1ccccc1)C(=O)O` [Gly-Phe, reference compound] (H-Gly-Phe-OH; N-terminus and C-terminus assumed), the lipophilicity (logP) in [5] was -0.65.
`NCC(=O)N[C@@H](Cc1c[nH]cn1)C(=O)O` [Gly-His] (H-Gly-His-OH; N-terminus and C-terminus assumed) came in with a logP of -2.42.
Consider `N=C(N)NCCC[C@H](N)C(=O)N[C@@H](Cc1ccccc1)C(=O)O` [Arg-Phe], for which, in data set [5], the log partition coefficient (logP) was -3.34.
For the molecule `N=C(N)NCCC[C@H](NC(=O)[C@@H](N)Cc1ccc(O)cc1)C(=O)O` [Tyr-Arg (Kyotorphin acetate), L-tyrosyl-L-arginine], the pH in data set [2] worked out at 8.54. In addition, in [3], the “Interaction with Oleic Acid” value is given as “X, E”. This molecule also displayed a logP in “physchem” of -4.
As for `N=C(N)N` [Guanidinehydrochloride], in [2], the pH was 12.71. In addition, in [3], the “Interaction with Oleic Acid” value was “X, E”. Also, the logP in “physchem” is -1.03.
`C[C@H](NC(=O)[C@H](Cc1ccccc1)NC(=O)[C@@H](N)CCCNC(=N)N)C(=O)O` [Arg-Phe-Ala acetate] (H-Arg-Phe-Ala-OH; N-terminus and C-terminus assumed) yielded a logP of -3.6.
